Measurements published in patent US6391911B1, “Coadministration of lucanthone and radiation for treatment of cancer” (priority 1999, dated 2002).
Entries after “also recorded” stand apart in the source; their conditions may differ. Structures can show the parent of a compound that is named as a salt. Starred links: 1 amine or outer side, 2 acyl side, 3 side chain; linkers in the order of their positions; H or OH if unused. Positions of bridges follow the written chain, without caps; N, C: chain ends. Non-standard residues stand in square brackets, D forms with d. Residues, ends and D or L forms follow the SMILES beside them. Chains are numbered I, II in the order given. Actinocin(9to1) = Cc1c2oc3c(C)ccc(C(=O)[*:1])c3nc-2c(C(=O)[*:2])c(N)c1=O; NMeV = CN[C@H](C(=O)O)C(C)C; Sar = CNCC(=O)O

How the values were obtained:
[1] = systemic chemotherapy; cited from earlier work
[2] = Tolerability in human clinical studies; format: in vivo
Procedure: Cancer patients were administered lucanthone hydrochloride in a total dose of 10 mg/Kg per day. The patients were given the drug in three divided doses in order to maintain blood and tissue levels. […] Lucanthone hydrochloride 250 mg tablets for clinical use [GRH/0/1581] were a gift of the Wellcome Foundation. Nausea and other side effects were not observed when patients received 10 mg/Kg.
Standard whole brain radiation, 30 Gy with an 8 MeV linear accelerator in ten equal doses over 2 weeks, was given in conjunction with lucanthone at 10 mg/Kg in three doses/day. Patients were assigned to radiation alone or radiation and lucanthone from a table of random numbers. Tumor sizes for each patient were determined before and after therapy independently by two neuroradiologists who had no knowledge of the protocol assignments.
Both treatments were omitted on weekends and were stopped after ten treatment days. […] No other chemotherapy was given during this time, except steroids, which is standard treatment with patients with brain metastases.

[3] = Tissue distribution of ^3H lucanthone in tumor-bearing mice; format: in vivo, C3H-HeHa mice
Procedure: Ten six-week-old 18-20 gram female C3H-HeHa mice obtained from West Seneca Laboratories (West Seneca, N.Y.) were injected subcutaneously in the right nipple line with 1.4×10^6 viable C3H-BA mammary adenocarcinoma cells. With such inocula, 1-2-mm tumors were detectable within 3 days. If allowed to grow, they killed the mice in 36-38 days. This highly invasive tumor could grow rapidly from inocula as low as 10^4 cells.
In order to minimize the influence of tumor size on drug distribution, drug was administered at various times during the course of tumor growth. Each day, from the seventh to eleventh day after injection, two mice were injected intraperitoneally with 1.27 mg^3 H lucanthone methanesulfonate. Lucanthone methanesulfonate, after being labeled by tritium exchange of hydrogen, was 96%-99% pure by thin layer chromatography. Before injection in mice, the specific radioactivity of ^3H lucanthone, originally 135 MBq/mg, was reduced to 67.5 MBq/mg by dilution with unlabeled lucanthone methanesulfonate. The total dose of radioactivity was 8.74 MBq (236 μCi) in 0.44 ml. All mice were sacrificed on the twelfth day, at which time the tumors were all approximately the same size, 7-12 mm in greatest diameter.
Distribution of tritium-labeled material in tissues represents lucanthone and its metabolites. Following sacrifice by cervical dislocation, the wet weight of samples of various organ or tumor tissue was determined immediately. Samples (about 50 mg each) were placed in glass scintillation vials with metal foil-lined caps. An alkaline tissue solubilizer, Protosol (DuPont—NEN), was added for digestion; radioactivity was determined by liquid scintillation techniques, as recommended by the manufacturer. Quench corrections were made for each sample to avoid interference from colored substances in individual samples. Hair was shaved from the skin samples to avoid its contribution to the weight of the sample.

[4] = reason for use as imaging control; cited from earlier work
[5] = Gamma camera imaging of radiolabeled rat models; format: in vivo; conditions: rats; intravenous radiotracer; pinhole collimator
Procedure: Rats were injected with ^125I-labeled lucanthone and ^99mTc-pertechnetate. Lucanthone hydrochloride used for ^125I labeling was 97.5% pure by HPLC mass spectroscopy (Sterling Winthrop Research Institute, R009CJ). ^125I labeled lucanthone was prepared by a modification of the chloramine T method, to be described in detail in a separate publication [Moran JK, Li Y, Deng HF, Labeling and biodistribution of lucanthone (in preparation)]. The product identity was confirmed by thin layer chromatography. ^99mTc-pertechnetate was obtained from a conventional laboratory supplier. The image acquisitions were performed using a Picker Dyna Camera 4C using Nuclear MAC imaging software running on a Power MAC 8100/80 AV computer. Images were obtained using a pinhole collimator with a collimator to rat distance of 6.5 cm.
Each animal was imaged using ^99mTc-pertechnetate (3.7 MBq). […] Therefore, a photopenic area in the image corresponds to the location of the rat brain.
Twenty-four hours following administration of ^99mTc-pertechnetate, ^125I lucanthone was administered to each test animal. Images were acquired in the left lateral position every 10 min after intravenous administration of 1.1 MBq of ^125I lucanthone.

## Cc1c2oc3c(C)ccc(C(=O)N[C@@H]4C(=O)N[C@H](C(C)C)C(=O)N5CCC[C@H]5C(=O)N(C)CC(=O)N(C)[C@@H](C(C)C)C(=O)O[C@@H]4C)c3nc-2c(C(=O)N[C@@H]2C(=O)N[C@H](C(C)C)C(=O)N3CCC[C@H]3C(=O)N(C)CC(=O)N(C)[C@@H](C(C)C)C(=O)O[C@@H]2C)c(N)c1=O [actinomycin D] (I: T[dV]P[Sar][NMeV] / II: T[dV]P[Sar][NMeV]; ester I:1-I:C, II:1-II:C; linker I:N-II:N via Actinocin(9to1))
[1]
  Crossing of the blood-brain barrier: fail to cross the blood-brain barrier in useful amounts

## CCN(CC)CCNc1ccc(C)c2sc3ccccc3c(=O)c12 [lucanthone hydrochloride]
[2]; cancer patients, 10 mg/Kg per day in three divided doses
  Tolerability of total dose: well tolerated
[2]; patients received 10 mg/Kg
  Nausea and other side effects: not observed

## CCN(CC)CCNc1ccc(C)c2sc3ccccc3c(=O)c12 [^3H lucanthone]
[3]; first and second days following intraperitoneal drug injection, C3H-BA mammary adenocarcinoma
  ^3H label in tumor tissue relative to skin and muscle: Enrichment of the ^3H label was detected in tumor tissue relative to skin and muscle
[3]; intraperitoneal injection
  ^3H lucanthone uptake and removal in brain, lung and spleen: little difference
[3]; intraperitoneal injection, principal excretory organs
  ^3H label concentration in livers and kidneys compared with tumor: higher concentrations were found than in the tumor

## ^99mTc-pertechnetate
[4]
  Crossing of the blood-brain barrier (known property): known not to cross the blood-brain barrier
[5]
  Photopenic area at the location of the brain in gamma camera scans: show a photopenic area in the animal's head

## COc1cc([C@@H]2c3cc4c(cc3[C@@H](O[C@@H]3O[C@@H]5CO[C@@H](C)O[C@H]5[C@H](O)[C@H]3O)[C@H]3COC(=O)[C@H]23)OCO4)cc(OC)c1O [etoposide]
[1]
  Crossing of the blood-brain barrier: fail to cross the blood-brain barrier in useful amounts; also recorded: crosses the blood-brain barrier poorly
